# Earlier results in patent publication US20230383363A1, “METHOD FOR DETERMINING SENSITIVITY TO PARP INHIBITOR OR DNA DAMAGING AGENT USING NON-FUNCTIONAL TRANSCRIPTOME” (GC GENOME CORPORATION, priority 2020, published 2023).
# Conditions: patients selected by FoundationFocusCDxBRCA (BRCA1 and BRCA2 mutations)
smiles,measurement,value
CNCc1ccc(-c2[nH]c3cc(F)cc4c3c2CCNC4=O)cc1 [rucaparib],overall response rate (ORR),53.8%
